Experimental data taken from patent publication US10508140B2, “Peptide having hair growth-promoting activity and/or melanin generation-promoting activity, and use thereof” (CAREGEN CO., LTD., priority 2016, dated 2019).
Blank lines part the entries; values can stand above or below the sequence they belong to. No end group written: not given here.

Tests used:
Format in all cases: cell-based
[1] = test system: keratin-14; test: Keratin-14 RT-PCR; details: human hair follicle dermal papilla cells, 24 hours
Method: (§1) Human hair follicle dermal papilla cells were seeded at a density of 5×10^5 cells/well on 6-well plates, followed by incubation overnight. After changing into serum-free medium, the cells were treated with the peptides, followed by incubation for 24 hours, and then the wells were harvested to isolate RNA. After RNA quantification, cDNA synthesis was conducted using the cDNA synthesis kit (Intron, Korea), followed by PCR using PCR premix (Intron, Korea) and Ha3-II and keratin-14 primers, and then electrophoresis was performed on 5% agarose gel to compare the mRNA expression levels of the growth factors in respective sample treatment conditions.

[2] = test system: DKK-1; test: DKK-1 western blotting; details: human hair follicle dermal papilla cells, DKK-1 increased by DHT, 24 hours
Method: (§2) Human hair follicle dermal papilla cells were seeded at a density of 4×10^5 cells/well on 6-well plate, followed by incubation overnight. After changing into serum-free medium, the cells were treated with the peptides, followed by incubation for 24 hours, and then the wells were harvested to prepare cell lysate. Western blotting was performed using DKK-1 antibodies (Santa Cruz Biotechnology, USA) to compare protein expression patterns.

[3] = test system: TGF-β1; test: TGF-β1 RT-PCR; details: human hair follicle dermal papilla cells, 24 hours
Method: as §1, with “4×10^5” for “5×10^5”, “plate,” for “plates,”, “TGF-β1” for “Ha3-II and keratin-14”

[4] = test system: CREB; test: Melanogenesis-related protein activity assay: CREB phosphorylation (western blotting); details: B16F10 cell line, 72 hours
Method: Melanocytes (B16F10 cell line) were incubated on 6-well culture plates in an incubator for 24 hours, and were treated with the peptide of the present invention with different concentrations. After 72-hour incubation, the cells were lysed, and the cells were subjected to western blotting using specific antibodies (Cell Signaling Technology, USA) to investigate the phosphorylation level of CREB, which is a signaling substance involved in melanogenesis.

[5] = test system: β-catenin; test: β-Catenin activity test (western blotting, nuclear and cytoplasmic proteins); details: human hair follicle dermal papilla cells, 15 and 30 minutes
Method: as §2, with “plates,” for “plate,”, “15 and 30 minutes,” for “24 hours,”, “isolate nuclear and cytoplasmic proteins.” for “prepare cell lysate.”, “β-catenin” for “DKK-1 antibodies”, “β-catenin” for “protein”

[6] = test system: KGF; test: KGF RT-PCR; details: human hair follicle dermal papilla cells, 24 hours
Method: as §1, with “4×10^5” for “5×10^5”, “plate,” for “plates,”, “respective KGF” for “Ha3-II”, “VEGF” for “keratin-14”, “in” for “in respective”

[7] = test system: MITF; test: Melanogenesis-related gene RT-PCR: MITF; details: B16F10 cell line, 72 hours
Method: (§3) Melanocytes (B16F10 cell line) were incubated on 6-well culture plates in an incubator for 24 hours, and were treated with the peptides of the present invention with different concentrations. After RNA was extracted from the cells incubated for 72 hours, cDNA was prepared. PCR was performed by using respective primers specific to MITF and tyrosinase, which are factors involved in melanogenesis, and the expression changes of the respective genes were observed.

[8] = test system: tyrosinase; test: Tyrosinase activity assay; details: B16F10 cells, 72 hours, L-dopa, absorbance 475 nm
Method: Melanoma cell line (B16F10) cells were cultured in 6-well culture plates for 24 hours, and treated with a peptide with difference concentrations, followed by culture for 72 hours. The 6-well culture plates were loaded on ice and washed with cool PBS, and then 300 μl of 0.1 M sodium phosphate buffer (pH 6.8 lysis buffer) containing 1% Triton X-100 was added. The cells were collected in 1.5-mL tubes, and then cell membranes were disrupted by repeating five times rapid-freezing at […] and thawing. After centrifugation at 13,000 rpm for 20 minutes, the supernatant was collected in other 1.5-mL tubes, and the protein of the samples was quantified. The samples were diluted to have the same protein concentration and then dispensed in each three wells in a 96-well culture plate, and then 20 μl of 10 mM L-dopa was added, followed by incubation at 37° C. for 1 hour.

[9] = test system: tyrosinase; test: Melanogenesis-related protein western blotting: tyrosinase; details: B16F10 cell line, 72 hours
Method: (§4) Melanocytes (B16F10 cell line) were incubated on 6-well culture plates for 24 hours, and were treated with the peptides of the present invention with different concentrations. After 72-hour incubation, the cells were lysed, and the cells were subjected to western blotting using specific antibodies (two types, both from Santa Cruz Biotechnology, USA) to investigate the expression of MITF and tyrosinase, which are factors involved in melanogenesis.

[10] = test system: Human hair follicle dermal papilla cells; test: DPC proliferation assay (MTT); details: serum-free medium, incubation for 3 days, absorbance 550 nm
Method: Human hair follicle dermal papilla cells were seeded at a density of 2×10^3 cells/well on 96-well plates, followed by incubation overnight. After changing into serum-free medium, the cells were treated with the peptides, followed by incubation for 3 days, and then the wells were treated with 4 mg/ml MTT solution, followed by reaction for 4 hours. The resulting formazan was solubilized with DNSO, and then the absorbance was measured at 550 nm using a microplate reader.

[11] = test system: DKK-1; test: DKK-1 RT-PCR; details: human hair follicle dermal papilla cells, DKK-1 increased by DHT, 24 hours
Method: as §1, with “DKK-1” for “Ha3-II and keratin-14”

[12] = test system: PI3K; test: PI3K western blotting; details: human hair follicle dermal papilla cells, 15 and 30 minutes
Method: as §2, with “15 and 30 minutes,” for “24 hours,”, “PI3K” for “DKK-1”, “Biotechnology, USA) and phospho-ERK antibody (Cell Signaling Technology,” for “Biotechnology,”

[13] = test system: Bax; test: Bax western blotting; details: human hair follicle dermal papilla cells, 24 hours
Method: as §2, with “Bcl-2 and Bax” for “DKK-1”

[14] = test system: ERK; test: p-ERK western blotting; details: human hair follicle dermal papilla cells, 15 and 30 minutes
Method: as §2, with “15 and 30 minutes,” for “24 hours,”, “PI3K” for “DKK-1”, “Biotechnology, USA) and phospho-ERK antibody (Cell Signaling Technology,” for “Biotechnology,”

[15] = test system: melanocytes (B16F10 cell line); test: Melanin measurement assay; details: 72 hours, absorbance 490 nm
Method: After melanocytes (B16F10 cell line) in 6-well plates were cultured in an incubator at 37° C. for 24 hours, the medium of each plate was removed and exchanged with a fresh medium, followed by treatment with the present peptide with different concentrations. After the incubation for 72 hours, the culture medium was removed, and the cells were taken off and then transferred into 1.5-ml tubes, followed by centrifugation at 13,000 rpm for 3 minutes. The supernatant was removed, and cell pellets were collected to observe melanin. Then, 150 μl of 2 M NaOH was added to the cell pellets to lyse intracellular melanin at 60° C. for 30 minutes. Then, 100 μl of the supernatant obtained from the lysis was added into each well of 96-well plates, and the absorbance was measured at 490 nm.

[16] = test system: tyrosinase; test: Melanogenesis-related gene RT-PCR: tyrosinase; details: B16F10 cell line, 72 hours
Method: as §3

[17] = test system: Bcl-2; test: Bcl-2 western blotting; details: human hair follicle dermal papilla cells, 24 hours
Method: as §2, with “Bcl-2 and Bax” for “DKK-1”

[18] = test system: MITF; test: Melanogenesis-related protein western blotting: MITF; details: B16F10 cell line, 72 hours
Method: as §4

[19] = test system: Ha3-II; test: Ha3-II RT-PCR; details: human hair follicle dermal papilla cells, 24 hours
Method: as §1

[20] = test system: MSX2; test: MSX2 RT-PCR; details: human hair follicle dermal papilla cells, 24 hours
Method: as §1, with “4×10^5” for “5×10^5”, “plate,” for “plates,”, “MSX2” for “Ha3-II and keratin-14”, “level” for “levels”, “factor” for “factors”, “in” for “in respective”

[21] = test system: TRP1; test: Melanogenesis-related gene RT-PCR: TRP1; details: B16F10 cell line, 72 hours, FIG. 13b
[22] = test system: VEGF; test: VEGF RT-PCR; details: human hair follicle dermal papilla cells, 24 hours
Method: as §1, with “4×10^5” for “5×10^5”, “plate,” for “plates,”, “respective KGF” for “Ha3-II”, “VEGF” for “keratin-14”, “in” for “in respective”

tyrosinase activity [8]: increased | mRNA expression of tyrosinase enzyme [16]: increased
Sequence: KWKRSADTL [SEQ ID NO: 2]
mRNA expression of keratin-14 [1]: increased | protein expression of DKK-1 [2]: decreased | expression of TGF-β1 (mRNA) [3]: inhibited | phosphorylation level of CREB [4]: increased | activity of β-catenin [5]: increased | expression of KGF (mRNA) [6]: increased | mRNA expression of MITF transcription factor [7]: increased | protein expression of tyrosinase enzyme [9]: increases | growth of human hair follicle dermal papilla cells [10]: stimulated in a dose-dependent manner | mRNA expression of DKK-1 [11]: decreased | expression of PI3K [12]: increase | expression of the apoptosis-related protein Bax [13]: decreased | phosphorylation level of ERK [14]: increase | melanogenesis [15]: increased | expression of the anti-apoptotic protein Bcl-2 [17]: increased | protein expression of MITF transcription factor [18]: increases

tyrosinase activity [8]: increased | mRNA expression of tyrosinase enzyme [16]: increased
Sequence: WKWRSADTL [SEQ ID NO: 1]
mRNA expression of keratin-14 [1]: increased | mRNA expression of Ha3-II [19]: increased | protein expression of DKK-1 [2]: decreased | expression of TGF-β1 (mRNA) [3]: inhibited | activity of β-catenin [5]: increased | expression of MSX2 (mRNA) [20]: increased | mRNA expression of TRP1 [21]: increases | mRNA expression of MITF transcription factor [7]: increased | expression of VEGF (mRNA) [22]: increased | protein expression of tyrosinase enzyme [9]: increased | growth of human hair follicle dermal papilla cells [10]: stimulated in a dose-dependent manner | mRNA expression of DKK-1 [11]: decreased | expression of the apoptosis-related protein Bax [13]: decreased | phosphorylation level of ERK [14]: increased | melanogenesis [15]: increased | expression of the anti-apoptotic protein Bcl-2 [17]: increased | protein expression of MITF transcription factor [18]: increased
